Tests used:
[1] = tested on: Cerebral ischemia model rat; assay: Test 5 (1): treatment of cerebral ischemia model rat; conditions: in vivo
[2] = tested on: cerebral ischemia model rats
[3] = Test 4: in-blood retention after vein injection (ESR of blood plasma); conditions: in vivo, mouse, injected in the vein
Description: Each of N-TEMPO-RNP and O-TEMPO-RNP prepared as described above was independently injected in the vein of a different mouse, and after a given time period, laparotomy was performed to carry out blood collection from the heart. After blood collection, centrifugal separation was performed at 6,200 rpm (2000×g) for 10 minutes to obtain blood plasma. When the ESR spectrum of the obtained blood plasma was measured, an ESR signal of each RNP was observed from within the blood. In addition, when the disposition thereof was examined, the half-life was approximately 20 minutes for the former (FIG. 9) and approximately one hour for the latter (FIG. 10).

[4] = Test 3: reduction-resistance against ascorbic acid (ESR); type: physicochemical; conditions: 3.6 mM AsA, PBS buffer pH 7.4
Description: AsA, also referred to as vitamin C, is present in general at high concentrations in blood.

[5] = Test 2: reduction-resistance against glutathione (ESR); type: physicochemical; conditions: 10 mM glutathione, pH7.2, one hour after colocalization with GSH
Description: It is known that, in general, while the interior of a cell is a reductive environment with high concentrations (0.5 mM to 10 mM) of glutathione present, on the order of only one over 100 to 1000 of that in the cell is present in blood.

Row | Molecule | cell death-protection effect in TTC-stained brain [1] | cell death in TTC-stained brain ([1]; iv) | average blood pressure at the time of agent administration ([2]; cerebral ischemia model rats, N=20) | neurological symptom score ([2]; score 0-3, N=20) | half-life [3] [s] | half-life (ESR signal) [4] [s] | decrease in the intensity of the ESR signal [5] [%]
1 | CC1(C)CC(O)CC(C)(C)N1[O] [Tempol, 4-hydroxy-2,2,6,6-tetramethylpiperidine-1-oxyl] | more cell death-protection effect at a given level or greater was obtained than with intravenous administration | more effect than N-TEMPO-RNP was not observed | decreased significantly | no significant differences | < 60 | – | –
2 | 2,2,6,6-tetramethylpiperidino oxy radical [TEMPO] | – | – | – | – | – | ≤ 20 | 50
